SMILES strings stand for the structures. Converted amounts (≈) assume the structure as drawn. Like-named read-outs stand apart in the source and are kept apart here.

Common to all, as to assay type: cell-based
Assay [1] concerns Lactobacillus spp. Description: Broth microdilution MIC. An excerpt:
Panel reference strains of bacteria from the American Type Culture Collection or Polish Collection of Microorganisms, including aerobic Gram-positive bacteria: Staphylococcus aureus ATCC 25923 and Staphylococcus epidermidis ATCC 12228, and aerobic Gram-negative bacteria: Escherichia coli ATCC 25922 and Pseudomonas aeruginosa ATCC 9027, as well as microaerobic Gram-positive bacteria: Lactobacillus spp., Lactobacillus acidophilus PCM 2105, Streptococcus mutans PCM 2502 and Streptococcus sanguinis PCM 2335, were used. Microbial suspensions with an optical density of 0.5 McFarland standard at 1.5 × 10^8 CFU/mL (CFU: colony forming unit) were prepared in sterile 0.9 % NaCl. Mueller–Hinton (M–H) broth and M–H agar (Oxoid Ltd., England) for aerobic strains, and MRS Broth Lactobacillus, MRS Agar Lactobacillus (BioMaxima S.A., Poland), BHI Broth and BHI agar (BioMaxima S.A., Poland) for microaerobic strains were used in the microbial tests.
A broth microdilution method was used to evaluate the minimum inhibition concentration (MIC) according to the CLSI document (CLSI performance standards for antimicrobial susceptibility testing, 2008, Eighteenth International Supplement, CLSI document M7-MIC, Clinical Laboratory Standards Institute, Wayne) with some modifications. […] A serial doubling dilution of the compounds was prepared in 96-well plates (200 μL per well). A suitable medium (M-H Broth, MRS Broth Lactobacillus, BHI Broth) was used as a diluent. The final concentrations of derivatives were 1000–0.015 μg/mL. Finally, 2 μL of inoculum of the tested bacterial strain (1.5 × 10^8 CFU/mL) was added to each well. The tests were performed either at 36 °C for 18 h (aerobic strains) or at 40 h (microaerobic strains). After incubation, the panel was digitally analyzed at 600 nm using the microplate reader Bio Tech Synergy (USA) with a dedicated software system. The growth intensity in each well was compared with the negative and positive controls.

Assay [2] deals with BJ (normal human skin fibroblasts). Description: Cell proliferation MTT assay. The note with it: 96 h; for IC50: Homo sapiens, Skin fibroblast, MTT, mean ± SD, read-out: IC50, antiproliferative activity, BJ. As to the method:
(§1) Normal human skin fibroblasts (BJ), human hepatocellular carcinoma (HepG2) and human breast adenocarcinoma (MCF-7) were obtained from American Type Culture Collection (ATCC, England, UK). The cells were cultured in Eagle’s minimum essential medium (EMEM, ATCC) supplemented with 10 % fetal bovine serum (FBS, PAA Laboratories), 100 U/mL penicillin and 100 μg/mL streptomycin (Sigma-Aldrich). In the case of the MCF-7 cell line, the culture medium was additionally supplemented with 0.01 μg/mL of human recombinant insulin (Sigma-Aldrich). The cells were grown in 75-cm^2 flasks and maintained at 37 °C in a humidified atmosphere of 5 % CO2 and 95 % air.
(§2) In order to evaluate cell proliferation, the cells were seeded in flat-bottom 96-well plates in 100 μL of a complete growth medium at a concentration of 2 × 10^3 cells/well (BJ), 1.5 × 10^4 cells/well (HepG2) and 2.5 × 10^4 cells/well (MCF-7) and incubated for 24 h at 37 °C in a humidified atmosphere of 5 % CO2. Before drug exposure, the synthesized compounds (1–10) were dissolved in DMSO and then diluted in a complete culture medium supplemented with 10 % FBS. Subsequently, the growth medium was gently removed and the cells were exposed to 100 μL of serial dilutions of the investigated compounds at concentrations ranging from 0.05 to 200 μg/mL. Untreated cells were used as negative controls, and different concentrations of DMSO were used as the solvent control. After 96-h incubation at 37 °C in a humidified atmosphere of 5 % CO2, cell proliferation was assessed using the MTT test as described previously (Cytotoxicity assay). The MTT assay was repeated in three independent experiments in quadruplicates. The half-maximal inhibitory concentration (IC50) was defined as the compound concentration (μg/mL) required to inhibit cell proliferation to 50 %.
(§3) The results of the in vitro cell culture experiments were presented as mean values ± standard deviation (SD) or as mean values ± standard error of the mean (SEM). The data were analyzed using one-way ANOVA test followed by Dunnett’s test. Differences were considered as significant with p < 0.01 (GraphPad Prism 5, Version 5.04 Software). The values of CC50 and IC50 were calculated via 4-parameter nonlinear regression analyses using GraphPad Prism 5, version 5.04.

The test system of assay [3] is HepG2 (human hepatocellular carcinoma). Description: Cell proliferation MTT assay. The conditions noted are these: 96 h; for IC50: Homo sapiens, HepG2, MTT, read-out: IC50, antiproliferative activity, HepG2. How it is done: as §1, §2, §3
(In general: Tetrazolium assays rely on reduction of a dye to a coloured formazan, in cell work by metabolically active cells.)

Setting [4] is: 10 μg/mL, proliferation reduced to.

`CSc1ccc(NC(=S)NNC(=O)c2cccnc2)cc1` [Compound 6, 4-(4-Methylthiophenyl)-1-(pyridin-3-yl)carbonylthiosemicarbazide]: the “Minimum inhibitory concentration (MIC), Lactobacillus spp.” value in assay [1] was “did not limit the growth”.

On to `O=C(NNC(=S)Nc1ccc(Cl)cc1Cl)c1ccccn1` [Compound 4, 4-(2,4-Dichlorophenyl)-1-(pyridin-2-yl)carbonylthiosemicarbazide], for which the MIC in assay [1] (Lactobacillus, read-out: Minimum inhibitory concentration (MIC), Lactobacillus spp.) stood at 31.2 µg/mL. The IC50 in assay [2] worked out at 1.86 ± 0.44 µg/mL (≈ 5.45 µM); in assay [3] (mean ± SD), 2.09 µg/mL; in assay [3] (same value in µM), 6.12 µM.

`O=C(NNC(=S)Nc1ccccc1Cl)c1ccccn1` [Compound 2, 4-(2-Chlorophenyl)-1-(pyridin-2-yl)carbonylthiosemicarbazide]: the “cell proliferation compared to the control, BJ” value in assay [2] (setting [4]) amounted to 32%. Also, the IC50 in assay [2] stood at 3.06 ± 0.46 µg/mL (≈ 9.97 µM); in assay [3] (mean ± SD), 2.71 ± 0.23 µg/mL. The “cell proliferation compared to the control, HepG2” value in assay [3] (setting [4]) came to 18.9%.

As usually defined, the IC50 is the midpoint of a concentration-inhibition curve.

Values taken from article PMC4958397, “Synthesis, antibacterial and antiproliferative potential of some new 1-pyridinecarbonyl-4-substituted thiosemicarbazide derivatives” (Medicinal Chemistry Research, 2016).
